Laboratory results taken from patent US20260373036A1, “A PERSONAL CARE COMPOSITION” (Concpco, Inc., d/b/a UNILEVER, priority 2022, published 2026).

Tested on: TXNRD1 (Thioredoxin reductase 1) gene
Experiment: TXNRD1 (thioredoxin reductase 1) gene expression in normal human epidermal keratinocytes (NHEK) by RT-PCR
Assay type: cell-based
Conditions: 24 hours, normalized to YWHAZ, relative to blank control (1.0)
Description: The normal human epidermal keratinocytes (NHEK, Lot: NHS-2021-006) (Archgene Biotechnology, Shanghai, China) were incubated in medium together with or without actives for 24 hours. After incubation, the total RNA for each NHEK was extracted using Qiagen Mini RNeasy kit (Qiagen, Cat. 74106) according to manufacturer's protocol.
The extracted RNA was quantified using Nanodrop 2000 spectrometer (Thermo Fisher Scientific, Waltham, MA, US) and reverse transcribed to generate the template cDNA using the ABScript III RT Mast Mix (Cat. BK20428, ABclonal) according to manufacturer's protocol. Amplification of the gene encoding the TXNRD1 (Thioredoxin reductase 1) gene was performed with RT-PCR reagent (Universal SYBR Green Fast qPCR Mix kit, Cat.: RK21203, ABclonal) on the ABI Vii 7 Real-Time PCR Systems (Applied Biosystems, Thermo fisher scientific, Carlsbad, CA, USA). The Tyrosine 3-Monooxygenase/Tryptophan 5-Monooxygenase Activation Protein Zeta gene (YWHAZ) was selected as the housekeeping gene and all data on relative expression of the target genes was normalized to YWHAZ.

| Fold change for gene expression TXNRD1 (0.05 wt % of LCC in medium) | Compound | fold induction at 5 µM (Homo sapiens, 5 μM of HR in medium, read-out: Fold change for gene expression TXNRD1) |
| --- | --- | --- |
| 1.2 | Lysine carboxymethyl cysteinate [LCC] | – |
| – | CCCCCCc1ccc(O)cc1O [HR, 4-hexyl resorcinol] | 1 |
